In ChEMBL document CHEMBL1131819, “Human chymase inhibitors based on the 1,2,5-thiadiazolidin-3-one 1,1 dioxide scaffold” (Bioorg Med Chem Lett, 1999):
Calls of active or inactive are those of the source. No cut-off for these calls is given here.

Experiments:
Chymase (Homo sapiens) = target: T1, Chymase (Homo sapiens) (UniProt P23946); assay: Second order rate constant for the inhibition of human skin chymase.
T1 sequence (whole entry): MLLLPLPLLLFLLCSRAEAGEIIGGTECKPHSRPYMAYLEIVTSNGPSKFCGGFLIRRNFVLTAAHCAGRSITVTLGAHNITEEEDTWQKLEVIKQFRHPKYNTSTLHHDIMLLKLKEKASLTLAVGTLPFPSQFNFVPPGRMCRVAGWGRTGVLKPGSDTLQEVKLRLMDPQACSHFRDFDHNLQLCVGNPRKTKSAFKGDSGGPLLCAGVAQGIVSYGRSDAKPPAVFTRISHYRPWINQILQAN

[1] = target: T2, Cathepsin G (Homo sapiens) (UniProt P08311); assay: Second order rate constant for the inhibition of leukocyte Cathepsin G (Cat G).
T2 sequence (whole entry): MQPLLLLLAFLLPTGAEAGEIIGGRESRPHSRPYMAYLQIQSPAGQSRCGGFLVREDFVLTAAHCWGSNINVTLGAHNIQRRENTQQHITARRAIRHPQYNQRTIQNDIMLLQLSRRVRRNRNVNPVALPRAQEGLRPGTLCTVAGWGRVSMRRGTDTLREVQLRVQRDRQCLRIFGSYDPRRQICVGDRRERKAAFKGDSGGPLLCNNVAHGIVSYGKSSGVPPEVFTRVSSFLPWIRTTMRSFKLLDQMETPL

With `O=C(O)c1ccccc1S(=O)(=O)CN1C(=O)C(Cc2ccccc2)N(Cc2ccccc2)S1(=O)=O` (configuration not stated) the “K inact/Ki” value (Chymase (Homo sapiens)) was “inactive” and the K inact/Ki [1] was 350 M⁻¹ s⁻¹.

`O=C1C(Cc2ccccc2)N(Cc2ccccc2)S(=O)(=O)N1CSc1nc2ccccc2o1` (configuration not stated) showed a K inact/Ki (Chymase (Homo sapiens)) of 5430 M⁻¹ s⁻¹ and a K inact/Ki [1] of 17100 M⁻¹ s⁻¹.

Compound `CC(O)C(=O)OCN1C(=O)C(Cc2ccccc2)N(Cc2ccccc2)S1(=O)=O` (configuration not stated) has a K inact/Ki (Chymase (Homo sapiens)) of 38500 M⁻¹ s⁻¹ and a K inact/Ki [1] of 12700 M⁻¹ s⁻¹.

`O=C(O)c1ccc(S(=O)(=O)CN2C(=O)C(Cc3ccccc3)N(Cc3ccccc3)S2(=O)=O)cc1` (configuration not stated) was tested, and the K inact/Ki (Chymase (Homo sapiens)) was 186000 M⁻¹ s⁻¹ and the K inact/Ki [1] was 66700 M⁻¹ s⁻¹.

`O=C(CO)OCN1C(=O)C(Cc2ccccc2)N(Cc2ccccc2)S1(=O)=O` (configuration not stated) was tested, and the K inact/Ki (Chymase (Homo sapiens)) was 30500 M⁻¹ s⁻¹ and the K inact/Ki [1] was 12800 M⁻¹ s⁻¹.

Compound `O=C1C(Cc2ccccc2)N(Cc2ccccc2)S(=O)(=O)N1CSc1nnc(-c2ccccc2)o1` (configuration not stated) has a K inact/Ki (Chymase (Homo sapiens)) of 5090 M⁻¹ s⁻¹ and a K inact/Ki [1] of 490 M⁻¹ s⁻¹.

In the case of `O=C1C(Cc2ccccc2)N(Cc2ccccc2)S(=O)(=O)N1CS(=O)(=O)c1ccccc1` (configuration not stated), the K inact/Ki (Chymase (Homo sapiens)) is reported as 12500 M⁻¹ s⁻¹ and the K inact/Ki [1] is reported as 11200 M⁻¹ s⁻¹.

Work on `O=C(O)CC(=O)OCN1C(=O)C(Cc2ccccc2)N(Cc2ccccc2)S1(=O)=O` (configuration not stated) yielded a K inact/Ki (Chymase (Homo sapiens)) of 45700 M⁻¹ s⁻¹ and a K inact/Ki [1] of 22700 M⁻¹ s⁻¹.

`CN1C(Cc2ccccc2)C(=O)N(CSc2nc3ccccc3o2)S1(=O)=O` (configuration not stated) was tested, and the K inact/Ki (Chymase (Homo sapiens)) was 6250 M⁻¹ s⁻¹ and the K inact/Ki [1] was 430 M⁻¹ s⁻¹.

`O=C(OCN1C(=O)C(Cc2ccccc2)N(Cc2ccccc2)S1(=O)=O)C(O)c1ccccc1` (configuration not stated) gave a K inact/Ki (Chymase (Homo sapiens)) of 39900 M⁻¹ s⁻¹ and a K inact/Ki [1] of 12300 M⁻¹ s⁻¹.

In the case of `O=C(O)CCS(=O)(=O)CN1C(=O)C(Cc2ccccc2)N(Cc2ccccc2)S1(=O)=O` (configuration not stated), the K inact/Ki (Chymase (Homo sapiens)) is reported as 23400 M⁻¹ s⁻¹ and the K inact/Ki [1] is reported as 17400 M⁻¹ s⁻¹.

For `CC(=O)OCN1C(=O)C(Cc2ccccc2)N(Cc2ccccc2)S1(=O)=O` (configuration not stated), the K inact/Ki (Chymase (Homo sapiens)) was 21800 M⁻¹ s⁻¹ and the K inact/Ki [1] was 10600 M⁻¹ s⁻¹.

For `O=C(O)c1cccc(S(=O)(=O)CN2C(=O)C(Cc3ccccc3)N(Cc3ccccc3)S2(=O)=O)c1` (configuration not stated), the K inact/Ki (Chymase (Homo sapiens)) was 13500 M⁻¹ s⁻¹ and the K inact/Ki [1] was 20700 M⁻¹ s⁻¹.

`CS(=O)(=O)CN1C(=O)C(Cc2ccccc2)N(Cc2ccccc2)S1(=O)=O` (configuration not stated) gave a K inact/Ki (Chymase (Homo sapiens)) of 4600 M⁻¹ s⁻¹ and a K inact/Ki [1] of 8500 M⁻¹ s⁻¹.

`O=C(O)CS(=O)(=O)CN1C(=O)C(Cc2ccccc2)N(Cc2ccccc2)S1(=O)=O` (configuration not stated) showed a K inact/Ki (Chymase (Homo sapiens)) of 10800 M⁻¹ s⁻¹ and a K inact/Ki [1] of 25200 M⁻¹ s⁻¹.

Work on `Nc1ccc2nc(SCN3C(=O)C(Cc4ccccc4)N(Cc4ccccc4)S3(=O)=O)sc2c1` (configuration not stated) yielded a K inact/Ki (Chymase (Homo sapiens)) of 14700 M⁻¹ s⁻¹ and a K inact/Ki [1] of 15700 M⁻¹ s⁻¹.
